{"source": "ChEMBL document CHEMBL1136937", "about": "“Discovery of a potent class I selective ketone histone deacetylase inhibitor with antitumor activity in vivo and optimized pharmacokinetic properties” (J Med Chem, 2009)", "key": {"G-401": {"system": "G-401", "assay": "Antiproliferative activity against human G401 cells after 72 hrs by celltiter-blue cell viability assay", "type": "functional"}, "HCT-116": {"system": "HCT-116", "assay": "Antiproliferative activity against human P53 expressing HCT116 cells after 72 hrs by celltiter-blue cell viability assay", "type": "functional"}, "MCF7": {"system": "MCF7", "assay": "Antiproliferative activity against human MCF7 cells after 72 hrs by celltiter-blue cell viability assay", "type": "functional"}, "HeLa": {"system": "HeLa", "assay": "Antiproliferative activity against human P53-deficient HeLa cells after 72 hrs by celltiter-blue cell viability assay", "type": "functional"}, "[1]": {"assay": "(§1) Metabolic stability in human liver microsomes assessed as intrinsic clearance at 1 uM after 90 mins", "type": "ADME, Microsome", "settings": "liver microsomes"}, "Histone deacetylase 1": {"molecular_target": "Histone deacetylase 1 (Homo sapiens, UniProt Q13547)", "sequence (Q13547 whole entry)": "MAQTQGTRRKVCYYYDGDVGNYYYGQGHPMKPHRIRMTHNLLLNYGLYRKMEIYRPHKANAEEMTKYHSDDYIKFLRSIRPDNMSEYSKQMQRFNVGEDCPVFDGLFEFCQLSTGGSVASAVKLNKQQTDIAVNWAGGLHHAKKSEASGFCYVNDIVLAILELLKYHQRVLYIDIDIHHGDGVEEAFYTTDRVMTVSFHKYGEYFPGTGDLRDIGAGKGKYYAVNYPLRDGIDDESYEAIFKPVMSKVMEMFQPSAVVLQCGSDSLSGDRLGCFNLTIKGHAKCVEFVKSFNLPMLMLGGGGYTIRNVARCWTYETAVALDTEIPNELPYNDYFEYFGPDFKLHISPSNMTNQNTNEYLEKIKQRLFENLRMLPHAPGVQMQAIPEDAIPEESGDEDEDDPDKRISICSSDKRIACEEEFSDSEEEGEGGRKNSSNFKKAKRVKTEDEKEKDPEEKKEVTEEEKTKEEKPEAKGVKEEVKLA", "description": "Inhibition of human C-terminal FLAG-tagged HDAC1 in HEK293 cells"}, "[2]": {"assay": "Metabolic stability in rat liver microsomes assessed as intrinsic clearance at 1 uM after 90 mins", "type": "ADME, Microsome"}, "[3]": {"assay": "Metabolic stability in dog liver microsomes assessed as intrinsic clearance at 1 uM after 90 mins", "type": "ADME, Canis lupus familiaris, Microsome", "settings": "for microsomal CLint at 1 µM: liver microsomes"}, "Liver microsomes": {"system": "Liver microsomes", "assay": "as §1", "type": "ADME, Microsome", "settings": "microsomes, 1.5 h, 1 µM"}, "[4]": {"assay": "Clearance in Sprague-Dawley rat plasma at 3 mg/kg, iv and 3 mg/kg, po", "type": "ADME, organism-based"}}, "data": [{"smiles": "O=C(CCCCCCC(=O)Nc1ccccc1)NO", "note": "[VORINOSTAT]", "values": [{"measurement": "CC50", "setting": "G-401", "result": 1, "unit": "µM"}, {"measurement": "CC50", "setting": "HCT-116", "result": 1, "unit": "µM"}, {"measurement": "CC50", "setting": "MCF7", "result": 3, "unit": "µM"}]}, {"smiles": "CCC(=O)CCCCC[C@H](NC(=O)C1CN(C)C1)c1ncc(-c2cnc3ccccc3n2)[nH]1", "values": [{"measurement": "CC50", "setting": "HeLa", "result": 0.43, "unit": "µM"}, {"measurement": "microsomal CLint at 1 µM", "setting": "[1]", "result": 19, "unit": "µL/min/mg"}, {"measurement": "IC50", "setting": "Histone deacetylase 1", "result": 0.008, "unit": "µM"}, {"measurement": "microsomal CLint at 1 µM", "setting": "[2]", "result": 27, "unit": "µL/min/mg"}, {"measurement": "microsomal CLint at 1 µM", "setting": "[3]", "result": 20, "unit": "µL/min/mg"}]}, {"smiles": "CC(=O)CCCCC[C@H](NC(=O)C1CCN(C)CC1)c1ncc(-c2ccc3ccccc3c2)[nH]1", "values": [{"measurement": "CC50", "setting": "HeLa", "result": 0.3, "unit": "µM"}, {"measurement": "CL", "setting": "Liver microsomes", "result": 194, "unit": "µL/min/mg"}, {"measurement": "CL", "setting": "[3]; microsomes, 1.5 h, 1 µM", "result": 194, "unit": "µL/min/mg"}]}, {"smiles": "CCC(=O)CCCCC[C@H](NC(=O)C1CN(C)C1)c1ncc(-c2cc(OC)c3ccccc3n2)[nH]1", "values": [{"measurement": "CC50", "setting": "HeLa", "result": 0.97, "unit": "µM"}, {"measurement": "microsomal CLint at 1 µM", "setting": "[1]", "result": 16, "unit": "µL/min/mg"}, {"measurement": "IC50", "setting": "Histone deacetylase 1", "result": 0.162, "unit": "µM"}, {"measurement": "microsomal CLint at 1 µM", "setting": "[2]", "result": 15, "unit": "µL/min/mg"}, {"measurement": "microsomal CLint at 1 µM", "setting": "[3]", "result": 9, "unit": "µL/min/mg"}, {"measurement": "clearance", "setting": "[4]", "result": 20, "unit": "mL/min/kg"}]}, {"smiles": "CCC(=O)CCCCC[C@H](NC(=O)C1CCN(C)CC1)c1ncc(-c2ccc3ccccc3n2)[nH]1", "values": [{"measurement": "CC50", "setting": "HeLa", "result": 0.48, "unit": "µM"}, {"measurement": "microsomal CLint at 1 µM", "setting": "[1]", "result": 12, "unit": "µL/min/mg"}, {"measurement": "IC50", "setting": "Histone deacetylase 1", "result": 0.022, "unit": "µM"}, {"measurement": "microsomal CLint at 1 µM", "setting": "[2]", "result": 110, "unit": "µL/min/mg"}, {"measurement": "microsomal CLint at 1 µM", "setting": "[3]", "result": 9, "unit": "µL/min/mg"}, {"measurement": "clearance", "setting": "[4]", "result": 155, "unit": "mL/min/kg"}]}, {"smiles": "CCC(=O)CCCCC[C@H](NC(=O)C1CCN(C)CC1)c1ncc(-c2cc3ccccc3cn2)[nH]1", "values": [{"measurement": "CC50", "setting": "HeLa", "result": 0.022, "unit": "µM"}, {"measurement": "microsomal CLint at 1 µM", "setting": "[1]", "result": 29, "unit": "µL/min/mg"}, {"measurement": "IC50", "setting": "Histone deacetylase 1", "result": 0.008, "unit": "µM"}, {"measurement": "microsomal CLint at 1 µM", "setting": "[2]", "result": 210, "unit": "µL/min/mg"}, {"measurement": "microsomal CLint at 1 µM", "setting": "[3]", "result": 18, "unit": "µL/min/mg"}]}, {"smiles": "CCC(=O)CCCCC[C@H](NC(=O)C1CN(C)C1)c1ncc(-c2cc3ccccc3nc2F)[nH]1", "values": [{"measurement": "CC50", "setting": "HeLa", "result": 0.19, "unit": "µM"}, {"measurement": "microsomal CLint at 1 µM", "setting": "[1]", "result": 18, "unit": "µL/min/mg"}, {"measurement": "IC50", "setting": "Histone deacetylase 1", "result": 0.008, "unit": "µM"}, {"measurement": "microsomal CLint at 1 µM", "setting": "[2]", "result": 34, "unit": "µL/min/mg"}, {"measurement": "microsomal CLint at 1 µM", "setting": "[3]", "result": 28, "unit": "µL/min/mg"}]}, {"smiles": "CCC(=O)CCCCC[C@H](NC(=O)C1CCN(C)CC1)c1ncc(-c2cc(OC)c3ccccc3n2)[nH]1", "values": [{"measurement": "CC50", "setting": "HeLa", "result": 0.77, "unit": "µM"}, {"measurement": "microsomal CLint at 1 µM", "setting": "[1]", "result": 10, "unit": "µL/min/mg"}, {"measurement": "IC50", "setting": "Histone deacetylase 1", "result": 0.03, "unit": "µM"}, {"measurement": "microsomal CLint at 1 µM", "setting": "[2]", "result": 36, "unit": "µL/min/mg"}, {"measurement": "microsomal CLint at 1 µM", "setting": "[3]", "result": 5, "unit": "µL/min/mg"}, {"measurement": "clearance", "setting": "[4]", "result": 36, "unit": "mL/min/kg"}]}]}
